Laboratory results reported in patent US10214779B2, “Method for identification of anti-HIV human miRNA mimics and miRNA inhibitors and anti-HIV pharmaceutical compounds” (CSIR, priority 2013, dated 2019).
Where a name gives a salt, the structure may show the parent alone. *1 amine or outer side, *2 acyl side, *3 side chain or, on linkers, in order; H or OH if unused. Where a SMILES comes first, the peptide text is derived from it. Bridges are numbered along the chain shown (N, C = ends). Roman numbers before positions name the chains, in order. [ ]: non-standard residue; d: D form. Actinocin(9to1) = Cc1c2oc3c(C)ccc(C(=O)[*:1])c3nc-2c(C(=O)[*:2])c(N)c1=O; NMeV = CN[C@H](C(=O)O)C(C)C; Sar = CNCC(=O)O

Experiments:
[1] = test system: HIV (Subtype B pseudoviral strain, PSGIII) in GHOST(3) cells; test: Targeted drug screen, Clearance Screen (drug after HIV infection) in GHOST(3) cells; assay type: cell-based, HIV-1; conditions: infection MOI 0.5 for 48 hour, then drug 24 h, screened at 100 nM, 1 uM and 10 uM
Procedure: A library of 101 Food and Drug Administration (FDA) approved oncology drugs as well as a library of 192 kinase-inhibitor compounds were screened as potential anti-HIV therapeutics using the GHOST(3) reporter cell line. Drugs were screened at 3 different concentrations of 100 nM, 1 uM and 10 uM. Each library was screened in triplicate at each drug concentration and in the following 3 formats:
This screen format was utilised to identify drugs/compounds that were able to suppress HIV replication in host cells already infected by HIV or drugs/compounds that were able to selectively target HIV-infected cells for apoptosis. GHOST(3) cells were seeded in the wells of a 96 well plate 24 hour prior to infection with the Subtype B pseudoviral strain, PSGIII, at an MOI of 0.5. The infective media was then removed 48 hour post infection and replaced with normal culture media supplemented with a drug/compound at the appropriate concentration. Twenty-four hours post drug treatment, cells were processed for imaging as previously described.
This screen format was used as a control to identify drugs that were broadly cytotoxic. […] GHOST(3) cells were seeded in 96 well plates, 24 hr post seeding, drugs were added to culture medium at the required final concentration. Twenty-four hours post drug treatment cells were processed for imaging as described previously.
Subtype B viral stocks were produced by the dual transfection of HEK293T cells with a PSGIII (Subtype B) viral backbone plasmid which lacks an envelope/packaging protein and a second plasmid expressing an HIV-BAL viral envelope protein (Subtype B). Plasmid transfections were conducted using the FuGene 6 lipid-based transfection reagent (Promega) as per the manufacturer's guidelines. Viral titres were determined using a luciferase readout-assay based on the JC53 cell line and the TCID50 calculation method described by Reed and Muench (1938). GHOST(3) cells were exposed to virions at an MOI of 0.5 for both the miRNA and targeted drug/compound screens. Cells were infected in SFM supplemented with 1× Glutamax (Infecting media) as FBS has previously been described to negatively impact the infection efficiency of HIV.
Cells were washed twice in 1×PBS before fixation with a 3.7% Formaldehyde solution for 30 minutes at room temperature. Cells were washed once with 1× PBS before the addition of Hoechst Nuclear stain (Invitrogen) at 2 uM final concentration in 1×PBS for 30 minutes at room temperature. The Hoechst staining solution was aspirated and replaced with 50 uL of 1×PBS solution before imaging.
Four fields of view (100 um apart) were acquired from the central region of each well imaged. Images were acquired in the 405 and 488 fluorescent channels for each field of view. Wells were imaged using the 20× ewld objective on the Image Xpress Ultra automated confocal microscope system (Molecular Devices). The imaging parameters were kept constant for all replicates of both miRNA and targeted drug/compound screens.
Feature extraction algorithms were utilized in order to extract 16 subcellular measurements from the acquired images. These 16 factors are derived from 15 descriptors previously described by Genovesio et al. 2011 to be relevant indicators of the infective state of host cells, with addition of ‘infection efficiency’ as a descriptor of the percentage of infected cells per treatment well.
A bespoke support vector machine-learning (SVML) pattern recognition algorithm was trained to identify phenotypes of interest using the relevant control wells. […] The transfection of siCD4 and Raltegravir treatment were thus utilised in the miRNA and drug/compound screens respectively as positive controls for the inhibition of HIV-1 replication. […]

[2] = test system: HIV (Subtype B pseudoviral strain, PSGIII) in GHOST(3) cells; test: Targeted drug screen, Phenocopy Screen (drug before HIV infection) in GHOST(3) cells; conditions: for Effect (Phenocopy Screen): drug 24 h before infection, MOI 0.5, 48 hour, screened at 100 nM, 1 uM and 10 uM, GHOST(3) cells
Procedure: GHOST(3) cells were seeded in the wells of a 96 well plate 24 hour prior to addition of a specific oncology drug at the appropriate concentration. Twenty-four hours post drug treatment, the drug supplemented media was removed and replaced with infective media containing the Subtype B pseudoviral strain, PSGIII. Cells were infected at an MOI of 0.5. The infective media was removed 48 hour post infection and cells were processed for imaging as previously described (See Sample Preparation).
Four fields of view (100 um apart) were acquired from the central region of each well imaged. […] Wells were imaged using the 20× ewld objective on the Image Xpress Ultra automated confocal microscope system (Molecular Devices). The imaging parameters were kept constant for all replicates of both miRNA and targeted drug/compound screens.

Aurora A = molecular target: T1, Aurora A (Homo sapiens, UniProt O14965); conditions: cited from earlier work
T1 sequence (O14965 1-403): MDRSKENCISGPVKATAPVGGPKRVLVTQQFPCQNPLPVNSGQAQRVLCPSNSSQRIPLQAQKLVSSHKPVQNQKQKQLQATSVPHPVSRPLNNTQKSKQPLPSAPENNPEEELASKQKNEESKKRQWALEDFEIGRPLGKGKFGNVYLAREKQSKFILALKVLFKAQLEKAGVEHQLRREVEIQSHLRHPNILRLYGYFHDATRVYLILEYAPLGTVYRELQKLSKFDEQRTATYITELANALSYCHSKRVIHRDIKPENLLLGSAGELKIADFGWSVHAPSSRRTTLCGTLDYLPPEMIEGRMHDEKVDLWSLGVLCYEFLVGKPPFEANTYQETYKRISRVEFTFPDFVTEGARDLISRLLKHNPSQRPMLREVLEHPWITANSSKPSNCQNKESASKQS

Aurora B = Aurora B (Homo sapiens, UniProt Q96GD4); conditions: cited from earlier work
p110γ = p110γ (Homo sapiens, UniProt P48736); conditions: cited from earlier work
Sequence of p110γ (P48736 whole entry, species assumed): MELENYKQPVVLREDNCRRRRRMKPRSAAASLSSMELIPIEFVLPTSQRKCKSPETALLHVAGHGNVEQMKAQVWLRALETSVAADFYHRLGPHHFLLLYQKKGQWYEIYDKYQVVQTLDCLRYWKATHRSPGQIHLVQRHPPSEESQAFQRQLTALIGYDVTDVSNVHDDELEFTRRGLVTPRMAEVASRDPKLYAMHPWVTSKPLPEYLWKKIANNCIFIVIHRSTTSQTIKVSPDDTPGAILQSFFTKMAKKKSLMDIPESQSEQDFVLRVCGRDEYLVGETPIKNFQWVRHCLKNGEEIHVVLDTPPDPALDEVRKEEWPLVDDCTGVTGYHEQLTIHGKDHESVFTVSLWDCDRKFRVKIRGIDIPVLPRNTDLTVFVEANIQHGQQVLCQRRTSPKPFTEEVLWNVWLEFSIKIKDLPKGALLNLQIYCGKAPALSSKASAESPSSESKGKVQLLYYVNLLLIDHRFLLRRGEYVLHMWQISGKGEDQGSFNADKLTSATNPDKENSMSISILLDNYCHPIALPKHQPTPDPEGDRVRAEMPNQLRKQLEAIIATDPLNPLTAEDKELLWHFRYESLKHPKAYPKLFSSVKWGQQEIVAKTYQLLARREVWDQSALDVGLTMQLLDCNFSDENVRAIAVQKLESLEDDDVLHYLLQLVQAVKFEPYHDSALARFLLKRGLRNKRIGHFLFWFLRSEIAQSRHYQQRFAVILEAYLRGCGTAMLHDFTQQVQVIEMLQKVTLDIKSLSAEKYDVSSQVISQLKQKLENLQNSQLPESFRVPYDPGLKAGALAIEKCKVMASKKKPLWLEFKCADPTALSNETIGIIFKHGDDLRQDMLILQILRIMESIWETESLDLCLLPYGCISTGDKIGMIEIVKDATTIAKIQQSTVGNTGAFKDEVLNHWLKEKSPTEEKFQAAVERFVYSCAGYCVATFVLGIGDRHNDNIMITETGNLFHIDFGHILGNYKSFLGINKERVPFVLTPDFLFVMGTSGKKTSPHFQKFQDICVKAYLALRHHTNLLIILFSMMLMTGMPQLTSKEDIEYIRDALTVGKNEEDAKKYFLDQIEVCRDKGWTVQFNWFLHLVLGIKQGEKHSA

Sequence of Aurora B (Q96GD4 whole entry): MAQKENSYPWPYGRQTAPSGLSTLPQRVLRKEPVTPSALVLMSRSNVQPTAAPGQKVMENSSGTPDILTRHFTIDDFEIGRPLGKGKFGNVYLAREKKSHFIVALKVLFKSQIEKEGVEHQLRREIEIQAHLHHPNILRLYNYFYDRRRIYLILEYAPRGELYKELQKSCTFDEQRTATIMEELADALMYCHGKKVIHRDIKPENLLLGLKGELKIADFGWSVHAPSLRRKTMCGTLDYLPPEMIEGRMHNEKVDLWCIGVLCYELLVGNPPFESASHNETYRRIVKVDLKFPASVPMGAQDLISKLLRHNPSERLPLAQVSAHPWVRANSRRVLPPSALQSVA

Structure (SMILES) | Effect (Phenocopy Screen) [2] | other results
Cc1[nH]nc2ccc(-c3cncc(OC[C@@H](N)Cc4ccccc4)c3)cc12 [A-674563] |  | Effect (Clearance Screen) [1]: Suppressed HIV^b
O=C(NC1CCNCC1)c1[nH]ncc1NC(=O)c1c(Cl)cccc1Cl [AT7519] | Toxic in response | 
CCN1CCN(C(=O)Cc2ccc(Nc3ncc(F)c(Nc4ccc(C(=O)Nc5ccccc5Cl)cc4)n3)cc2)CC1 [Aurora A inhibitor I] | Toxic in response | IC50 (Aurora A; Aurora A): 3.4 nM; B/A ratio (Aurora A; Aurora B / Aurora A selectivity): 1000; IC50 (Aurora B): 3400 nM
COC(=O)c1ccc2c(c1)NC(=O)/C2=C(\Nc1ccc(N(C)C(=O)CN2CCN(C)CC2)cc1)c1ccccc1 [BIBF1120 (Vargatef)] | Suppressed HIV^a | 
N.N.[Cl][Pt][Cl] [Cisplatin] |  | Effect (Clearance Screen) [1]: Suppressed HIV^b
CC1(COc2ccc3c(c2)ncn3-c2ccc3cccc(N4CCC(N)CC4)c3n2)COC1 [Crenolanib (CP-868596), Crenolanib] | Toxic in response | 
Cc1c2oc3c(C)ccc(C(=O)N[C@@H]4C(=O)N[C@H](C(C)C)C(=O)N5CCC[C@H]5C(=O)N(C)CC(=O)N(C)[C@@H](C(C)C)C(=O)O[C@@H]4C)c3nc-2c(C(=O)N[C@@H]2C(=O)N[C@H](C(C)C)C(=O)N3CCC[C@H]3C(=O)N(C)CC(=O)N(C)[C@@H](C(C)C)C(=O)O[C@@H]2C)c(N)c1=O [Dactinomycin] (I: T[dV]P[Sar][NMeV] / II: T[dV]P[Sar][NMeV]; ester I:1-I:C, II:1-II:C; linker I:N-II:N via Actinocin(9to1)) |  | Effect (Clearance Screen) [1]: Suppressed HIV^b
C[C@@H](CN1CC(=O)NC(=O)C1)N1CC(=O)NC(=O)C1 [Dexrazoxane] |  | Effect (Clearance Screen) [1]: Suppressed HIV^b
C#Cc1cccc(Nc2ncnc3cc(OCCOC)c(OCCOC)cc23)c1 [Erlotinib hydrochloride] | Toxic in response | 
CO[C@H]1C[C@@H]2CC[C@@H](C)[C@@](O)(O2)C(=O)C(=O)N2CCCC[C@H]2C(=O)O[C@H]([C@H](C)C[C@@H]2CC[C@@H](OCCO)[C@H](OC)C2)CC(=O)[C@H](C)/C=C(\C)[C@@H](O)[C@@H](OC)C(=O)[C@H](C)C[C@H](C)/C=C/C=C/C=C/1C [Everolimus] |  | Effect (Clearance Screen) [1]: Suppressed HIV^b
O=c1[nH]c(=O)n([C@H]2C[C@H](O)[C@@H](CO)O2)cc1F [Floxuridine] | Toxic in response | 
COc1cc2c(Oc3ccc(NC(=O)C4(C(=O)Nc5ccc(F)cc5)CC4)cc3F)ccnc2cc1OCCCN1CCOCC1 [Foretinib] | Suppressed HIV^a | 
COc1ncc(-c2ccc3nccc(-c4ccnnc4)c3c2)cc1NS(=O)(=O)c1ccc(F)cc1F [GSK2126458] | Suppressed HIV^a | 
COc1cc2ncnc(Nc3ccc(F)c(Cl)c3)c2cc1OCCCN1CCOCC1 [Gefitinib] | Toxic in response | 
O=P1(NCCCl)OCCCN1CCCl (centres unmarked) [Ifosfamide] |  | Effect (Clearance Screen) [1]: Suppressed HIV^b
c1ccc2c(-c3cnn4cc(-c5ccc(N6CCNCC6)cc5)cnc34)ccnc2c1 [LDN193189] | Toxic in response | 
Cc1ccc(C(=O)Nc2cccc(C(F)(F)F)c2)cc1Nc1nc(-c2cccnc2)nc2c1cnn2C [NVP-BHG712] | Suppressed HIV^a | 
Cc1ccc([N+](=O)[O-])cc1S(=O)(=O)N(C)/N=C/c1cnc2ccc(Br)cn12 [PIK-75] | Toxic in response | IC50 (p110γ): 76 nM
Cc1ccc(C(=O)Nc2ccc(CN3CCN(C)CC3)c(C(F)(F)F)c2)cc1C#Cc1cnc2cccnn12 [Ponatinib] | Suppressed HIV^a | 
Cc1nnc(C(=O)NC(C)(C)c2nc(C(=O)NCc3ccc(F)cc3)c(O)c(=O)n2C)o1 [Raltegravir] |  | HIV replication (positive control phenotype) ([2]; 10 uM, added 24 hour prior to exposure to HIV): suppressed HIV replication
CC(C)(C)c1cnc(CSc2cnc(NC(=O)C3CCNCC3)s2)o1 [SNS-032 (BMS-387032)] | Toxic in response | 
CN1CCN(CCOc2cc(OC3CCOCC3)c3c(Nc4c(Cl)ccc5c4OCO5)ncnc3c2)CC1 [Saracatinib] | Suppressed HIV^a | 
Cn1nnc2c(C(N)=O)ncn2c1=O [Temozolomide] | Suppressed HIV^a | 
O=C1CCC(N2C(=O)c3ccccc3C2=O)C(=O)N1 (centres unmarked) [Thalidomide] | Suppressed HIV^a | 
CCCS(=O)(=O)Nc1ccc(F)c(C(=O)c2c[nH]c3ncc(-c4ccc(Cl)cc4)cc23)c1F [Vemurafenib] |  | Effect (Clearance Screen) [1]: Suppressed HIV^b
CC[C@]1(O)C[C@H]2CN(CCc3c([nH]c4ccccc34)[C@@](C(=O)OC)(c3cc4c(cc3OC)N(C=O)[C@H]3[C@@](O)(C(=O)OC)[C@H](OC(C)=O)[C@]5(CC)C=CCN6CC[C@]43[C@@H]65)C2)C1 [Vincristine sulfate] | Suppressed HIV^a | 
O=C(CCCCCCC(=O)Nc1ccccc1)NO [Vorinostat] | Toxic in response | 
C=CC(=O)Nc1cccc(Oc2nc(Nc3ccc(N4CCN(C)CC4)cc3OC)ncc2Cl)c1 [WZ4002] | Suppressed HIV^a | 
